Test system: lysine deficient rats
Experiment: Effect of a medicine on abnormal bowel movement of lysine deficient rats (carmine dye feces count)
Assay type: in vivo, rats (male Wistar)
Settings: oral administration with carmine dye; rats fed low lysine diet 7 days, fasted one day; Dunnett's method
Text: The low lysine diet (n=10) or lysine-containing diet (normal diet; n=10) was given to rats (Charles River Japan, Inc, male Wistar rats, 5W). The rats fed for 7 days were used. Each rat was fasted one day before the start of the experiments (on the 6th day after beginning the feeding of the experimental diet) and then a medicine and carmine dye were orally administered. The number of the carmine colorant-containing feces was cumulatively counted sequentially. The statistical analysis was conducted according to Dunnett's method.

Question: For `Cc1[nH]cnc1CN1CCc2c(c3ccccc3n2C)C1=O` [Alosetron], which “acceleration of the excretion of carmine-containing feces” value is on record?
Answer: significantly control the acceleration of the excretion of the feces
